We go through 13 compounds from ChEMBL document CHEMBL5523748, “Targeting Myeloperoxidase Ameliorates Gouty Arthritis: A Virtual Screening Success Story” (J Med Chem, 2024).

Data set [1] relates to Mus musculus. Put plainly: Downregulation of IL-6 level in MSU-induced gouty arthritic male C57BL/6 mouse model at 30 mg/kg, ip preadministered with compound for 30 mins followed by MSU addition and measured after 6 hrs by ELISA. The format is functional, organism-based. The note with it: time 6.5 hrs. (In general: In an ELISA, binding on a coated surface is turned into a signal by an enzyme label.)

Data set [2] in a line: Reactivity of the compound in phosphate buffer at pH 7.4 assessed as compound oxidation by measuring decrease in fluorescence spectra in presence of MPO, H2O2 and tyrosine by fluorescence microplate reader. In kind it is physicochemical.
A short description of data set [3]: Reactivity of the compound in phosphate buffer at pH 7.4 assessed as compound oxidation by measuring decrease in fluorescence spectra in presence of MPO by fluorescence microplate reader. The format is physicochemical.
For data set [4], the target named is T1, Myeloperoxidase (Homo sapiens) (UniProt P05164).
T1 sequence (whole entry): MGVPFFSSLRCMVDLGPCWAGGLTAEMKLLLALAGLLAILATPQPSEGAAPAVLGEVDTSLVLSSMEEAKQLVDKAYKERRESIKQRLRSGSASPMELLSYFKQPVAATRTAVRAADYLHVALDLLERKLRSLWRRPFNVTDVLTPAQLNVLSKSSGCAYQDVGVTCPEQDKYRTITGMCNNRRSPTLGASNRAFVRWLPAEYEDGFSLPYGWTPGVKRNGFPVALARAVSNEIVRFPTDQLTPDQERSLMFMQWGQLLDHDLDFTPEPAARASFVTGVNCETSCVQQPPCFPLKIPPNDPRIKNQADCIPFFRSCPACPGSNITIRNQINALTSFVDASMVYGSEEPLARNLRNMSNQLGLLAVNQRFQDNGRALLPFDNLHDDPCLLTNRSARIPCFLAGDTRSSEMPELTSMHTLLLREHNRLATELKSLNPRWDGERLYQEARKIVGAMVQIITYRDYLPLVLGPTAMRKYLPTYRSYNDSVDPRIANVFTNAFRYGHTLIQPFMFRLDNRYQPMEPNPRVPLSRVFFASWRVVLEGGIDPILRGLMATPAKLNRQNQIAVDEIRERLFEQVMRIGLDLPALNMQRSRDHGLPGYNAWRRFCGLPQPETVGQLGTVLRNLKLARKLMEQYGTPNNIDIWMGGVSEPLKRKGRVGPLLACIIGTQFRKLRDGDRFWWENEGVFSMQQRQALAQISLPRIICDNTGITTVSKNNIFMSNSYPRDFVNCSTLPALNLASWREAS
Put plainly: Reversible inhibition of human leukocyte MPO using hydrogen peroxide as substrate assessed as restoration of MPO peroxidase activity at 20 uM incubated for 30 mins and measured after dilution using acetate buffer in presence of TMB.

Data set [5] concerns Neutrophil. Put plainly: Inhibition of MSU-induced NETosis in human neutrophil assessed as reduction in release of large DNA scaffolds at 20 uM incubated for 90 mins by sytox green staining based fluorescence microscopic analysis. In kind it is functional, cell-based.
The subject of data set [6] is Neutrophil. Put plainly: Inhibition of MSU-induced NETosis in human neutrophil assessed as reduction in nuclear expansion at 20 uM incubated for 90 mins by sytox green staining based fluorescence microscopic analysis. In kind it is functional, cell-based.
Data set [7] deals with dHL-60. Put plainly: Inhibition of HOCl production in human dHL-60 cells at 20 uM incubated for 1 hrs in presence of PMA. In kind it is functional, cell-based.
Data set [8] addresses Poly [ADP-ribose] polymerase 1 (Homo sapiens) (UniProt P09874). Put plainly: Inhibition of PARP1-induced ADP-ribosylation in human hTERT-RPE1 cells at 1 to 50 uM preincubated with compound for 1 hrs followed by H2O2 addition and measured after 10 mins. The format is cell-based. The note with it: dose 1-50 µM, time 70.0 min.
Data set [9] concerns Neutrophil. Put plainly: Inhibition of HOCl production in human neutrophil at 20 uM incubated for 1 hrs in presence of PMA. In kind it is functional, cell-based.
The subject of data set [10] is Mus musculus. Put plainly: Anti-inflammatory activity against MSU-induced gouty arthritis in male C57BL/6 mouse model assessed as prevention of paw edema at 3 to 30 mg/kg, ip preadministered with compound for 30 mins followed by MSU administration and measured for 6 hrs by plethysmometer. The format is functional, organism-based. The note with it: dose 3-30 mg/kg, time 6.5 hrs.

Data set [11] is described as follows: Antioxidant activity assessed as taurine chloramine scavenging activity incubated for 15 mins. In kind it is functional.
Data set [12] can be described thus: Reactivity of the compound in phosphate buffer at pH 7.4 assessed as compound oxidation by measuring decrease in fluorescence spectra in presence of H2O2 by fluorescence microplate reader. In kind it is physicochemical.
The nature of data set [13]: Reactivity of the compound in phosphate buffer at pH 7.4 assessed as compound oxidation by measuring decrease in fluorescence spectra in presence of H2O2 and chloride by fluorescence microplate reader. The format is physicochemical.
For data set [14], the system named is TERT-RPE1. Put plainly: Cytotoxicity against human hTERT-RPE1 cells assessed as reduction in cell viability at 2 to 50 uM measured after 72 hrs by XTT assay. The format is toxicity, cell-based. The note with it: tert-rpe1, 72 h, dose 2-50 µM. For orientation: Formazan colour is commonly taken as a measure of viable cells.
The nature of data set [15]: Reactivity of the compound in phosphate buffer at pH 7.4 assessed as compound oxidation by measuring decrease in fluorescence spectra in presence of MPO and chloride by fluorescence microplate reader. The format is physicochemical.
For data set [16], the system named is Mus musculus. Put plainly: Downregulation of IL-1beta level in MSU-induced gouty arthritic male C57BL/6 mouse model at 30 mg/kg, ip preadministered with compound for 30 mins followed by MSU addition and measured after 6 hrs by ELISA. In kind it is functional, organism-based. The note with it: time 6.5 hrs.
The test system of data set [17] is Mus musculus. Put plainly: Reduction in total peroxidase activity in MSU-induced gouty arthritic male C57BL/6 mouse model at 30 mg/kg, ip preadministered with compound for 30 mins followed by MSU addition and measured after 6 hrs. Conditions: time 6.5 hrs. The format is functional, organism-based.
Data set [18] concerns Mus musculus. Put plainly: Anti-inflammatory activity against MSU-induced gouty arthritis in male C57BL/6 mouse model assessed as prevention of paw edema at 3 to 30 mg/kg, ip preadministered with compound for 30 mins followed by MSU administration and measured for 1 to 4 hrs by plethysmometer. In kind it is functional, organism-based. The note with it: dose 3-30 mg/kg, time lower 1.5 hrs, time upper […].

In data set [19] the test system is Mus musculus. Put plainly: Anti-inflammatory activity against MSU-induced gouty arthritis in male C57BL/6 mouse model assessed as prevention of paw edema at 0.3 mg/kg, ip preadministered with compound for 30 mins followed by MSU administration and measured for 4 hrs by plethysmometer. The format is functional, organism-based.
Data set [20] addresses T1, Myeloperoxidase (Homo sapiens). Put plainly: Inhibition of human leukocyte MPO peroxidase activity using hydrogen peroxide as substrate by fluorescence based analysis.
In data set [21] the test system is TERT-RPE1. Put plainly: Cytotoxicity against human hTERT-RPE1 cells assessed as reduction in cell viability at 50 uM measured after 72 hrs by XTT assay. In kind it is toxicity, cell-based. The note with it: tert-rpe1, 72 h.
Data set [22] can be described thus: Reactivity with Hypochlorous acid (HOCl) in phosphate buffer at pH 7.4 assessed as fluorescence decay at 20 uM measured within 1 sec by stopped-flow spectrophotometric analysis. In kind it is physicochemical. Conditions: pH 7.4, 1 s.
The target of data set [23] is T1, Myeloperoxidase (Homo sapiens). Put plainly: Inhibition of human leukocyte MPO chlorinating activity using hydrogen peroxide as substrate at 20 uM preincubated for 15 mins followed by substrate addition and measured after 8 mins relative to control. Conditions: time 23.0 min.
The subject of data set [24] is Mus musculus. Put plainly: Anti-inflammatory activity against MSU-induced gouty arthritis in male C57BL/6 mouse model assessed as inhibition of paw edema at 34 mg/kg, po preadministered with compound for 1 hrs followed by MSU administration and measured for 6 hrs by plethysmometer. The format is functional, organism-based. The note with it: time 7.0 hrs.
The test system of data set [25] is Mus musculus. Put plainly: Anti-inflammatory activity against MSU-induced gouty arthritis in male C57BL/6 mouse model assessed as prevention of paw edema at 3 to 30 mg/kg, ip preadministered with compound for 30 mins followed by MSU administration and measured upto 4 hrs by plethysmometer. Conditions: dose 3-30 mg/kg. In kind it is functional, organism-based.

Data set [26] has as its system Mus musculus. Put plainly: Anti-inflammatory activity against MSU-induced gouty arthritis in male C57BL/6 mouse model assessed as prevention of paw edema at 30 mg/kg, ip preadministered with compound for 30 mins followed by MSU administration and measured upto 4 hrs by plethysmometer. In kind it is functional, organism-based.

Calls of active or inactive are those of the source. The calls are words filed in the database; no cut-off is given here.

Sequence of Poly [ADP-ribose] polymerase 1 (Homo sapiens) (P09874 whole entry): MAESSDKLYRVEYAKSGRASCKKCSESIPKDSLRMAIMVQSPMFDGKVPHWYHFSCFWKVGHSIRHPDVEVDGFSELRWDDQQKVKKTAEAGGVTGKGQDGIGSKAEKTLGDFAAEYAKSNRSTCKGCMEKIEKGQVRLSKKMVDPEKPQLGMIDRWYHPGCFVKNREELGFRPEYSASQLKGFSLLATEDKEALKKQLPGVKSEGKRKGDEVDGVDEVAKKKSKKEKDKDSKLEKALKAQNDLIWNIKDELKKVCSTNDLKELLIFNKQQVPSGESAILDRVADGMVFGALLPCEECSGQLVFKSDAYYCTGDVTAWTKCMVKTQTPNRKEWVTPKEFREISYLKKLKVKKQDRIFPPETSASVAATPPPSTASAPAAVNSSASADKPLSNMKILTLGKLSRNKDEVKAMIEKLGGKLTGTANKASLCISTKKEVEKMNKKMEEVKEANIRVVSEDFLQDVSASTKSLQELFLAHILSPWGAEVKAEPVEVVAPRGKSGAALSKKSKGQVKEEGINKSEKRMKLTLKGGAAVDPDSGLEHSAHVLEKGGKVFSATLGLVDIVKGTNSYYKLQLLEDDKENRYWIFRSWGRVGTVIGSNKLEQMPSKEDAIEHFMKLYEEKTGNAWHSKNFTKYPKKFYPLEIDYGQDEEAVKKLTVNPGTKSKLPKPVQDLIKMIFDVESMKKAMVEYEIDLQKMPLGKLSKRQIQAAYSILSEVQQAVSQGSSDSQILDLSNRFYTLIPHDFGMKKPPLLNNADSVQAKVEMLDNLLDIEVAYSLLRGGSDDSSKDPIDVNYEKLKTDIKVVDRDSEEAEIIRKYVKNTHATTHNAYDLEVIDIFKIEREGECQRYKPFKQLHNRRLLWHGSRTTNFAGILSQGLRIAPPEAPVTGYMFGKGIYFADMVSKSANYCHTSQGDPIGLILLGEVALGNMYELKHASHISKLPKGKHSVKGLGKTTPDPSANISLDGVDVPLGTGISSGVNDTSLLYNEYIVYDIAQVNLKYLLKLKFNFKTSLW

On to `Nc1cc2c3c(cccc3c1)C(=O)N(N)C2=O`, for which the result in [1] and in [11] was inactive. Also, the Drug metabolism result in [2], in data set [3], in data set [12], in [13] and in [15] was “Metabolite_Notdetected” each time. In addition, the inhibition entry in data set [4], in [5], in [6], in [7] and in [9] was “Active” each time. In addition, the inhibition result in data set [8] is “inactive”. The result in data set [10] was Active. Also, the Activity entry in data set [14] was “Non-Toxic”.

As for `CCCOc1ccc(C2C(C#N)=C(N)SC(N)=C2C#N)cc1OC`, the result in [11] was Active.

With `CN1CCc2nc3sc(C(=O)Nc4cccc(C#N)c4)c(N)c3cc2C1`, the outcome in data set [1], in data set [16], in data set [17] and in data set [11] was inactive. In addition, the Drug metabolism entry is given as “Metabolite_Notdetected” in [3]; “Metabolite_Notdetected” in data set [12]; “Metabolite_Detected” in [13]; “Metabolite_Detected” in [15]; “Metabolite_Detected” in [22]. Further, the inhibition entry in [5], in data set [6], in data set [7] and in [9] was “Active” throughout. Further, the result in [18] and in [19] was Active. Moreover, the inhibition result in data set [20] is “inactive”. Also, the Activity result in data set [21] is recorded as “Toxic”.

As to `COc1cc(/C=N/NC(=O)c2ccoc2C)ccc1OCCN1CCCCC1`, the inhibition entry in [23] is “inactive”.

As for `CCOC(=O)C(Cc1ccc(O)cc1)NC1=CC(=O)C(=O)c2ccccc21` (centres undefined), the inhibition result in [23] was “inactive”.

Turning to `CCCc1cc(=O)[nH]c(=S)[nH]1`, the inhibition entry in data set [5], in [6], in data set [7] and in [9] was “Active” in each case.

Take `COc1ccc(C(=O)Nc2ccc(-c3nnc(S)o3)cc2)cc1`: the inhibition entry in data set [7], in [9] and in [20] was “inactive” in each case. Further, in data set [11], the result was Active.

As for `CCc1c(O)[nH]c2nc3ccccc3n2c1=O`, the result in data set [1], in [16], in data set [24] and in [17] was inactive. Moreover, in data set [25], the outcome was Active.

On to `Cc1cccc(Nc2ccccc2C(=O)O)c1C`, for which the result in data set [1], in data set [16] and in [17] was inactive. The result in data set [26] was Active.

Turning to `CN(C)CCc1c(C#N)c(=O)ncn1Cc1ccccc1`, the inhibition result in data set [20] and in data set [23] was “inactive” throughout.

For `CCCNc1ncnc2cc(-c3ccc(OC)cc3)sc12`, the inhibition entry in data set [20] and in [23] was “inactive” throughout.

With `N#CC1=C(N)Oc2c(c(=O)sc3ccccc23)C1c1ccc(F)cc1` (centres undefined), the inhibition entry in [23] was “inactive”.

As for `O=c1c2cnc3cc(C(F)(F)F)ccc3c2sc2nncn12`, the inhibition result in data set [20] and in data set [23] was “inactive” in each case.
